Each compound was assayed against BTK (Homo sapiens, UniProt Q06187) (assay: biochemical). Details: read-out: BTK inhibition (%).
Sequence of BTK (Q06187 402-655 limits assumed): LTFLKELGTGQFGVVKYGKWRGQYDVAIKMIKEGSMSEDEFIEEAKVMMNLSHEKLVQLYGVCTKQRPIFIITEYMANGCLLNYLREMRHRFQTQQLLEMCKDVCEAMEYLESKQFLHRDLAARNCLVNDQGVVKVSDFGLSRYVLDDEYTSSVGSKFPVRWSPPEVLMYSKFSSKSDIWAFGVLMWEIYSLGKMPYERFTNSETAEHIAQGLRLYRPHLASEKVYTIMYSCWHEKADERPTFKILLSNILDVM
For `O=C(O)[C@H]1O[C@@H](Oc2cc3oc(-c4ccc(O)cc4)cc(=O)c3c(O)c2O)[C@H](O)[C@@H](O)[C@@H]1O` [PCM-0215170], the inhibition at 10 µM was 0%.

Same assay, conditions: read-out: BTK inhibition (%), 0.75 uM BTK, […] probe 3l, 15 min preincubation
`C[C@@H]1O[C@@H](OC[C@H]2O[C@@H](Oc3cc(O)c4c(c3)O[C@H](c3ccc(O)c(O)c3)CC4=O)[C@H](O)[C@@H](O)[C@@H]2O)[C@H](O)[C@H](O)[C@H]1O` [PCM-0216467] gave an inhibition at 10 µM of 10%. Work on `O=C(Nc1cccc(Nc2ncc(Br)c(NCCc3cnc[nH]3)n2)c1)N1CCCC1` [PCM-0095062] yielded an inhibition at 10 µM of 85.5%. In the case of `CCOC(=O)OC(C)OC1=C(C(=O)Nc2ccccn2)N(C)S(=O)(=O)c2ccccc21` (stereo not drawn) [PCM-0090753], the inhibition at 10 µM is reported as 2.1%. `COc1cc2c(NC3CCN(C(C)C)CC3)nc(C3CCCCC3)nc2cc1OCCCN1CCCC1` [PCM-0215758] was tested, and the inhibition at 10 µM was -10.8%. With `Cn1cc(/C=C2\C(=O)Nc3cccnc32)c2ccccc21` [PCM-0095342] the inhibition at 10 µM was 22.8%. Work on `C[C@@H]1CC[C@H]2[C@@H](C)C(O)O[C@@H]3O[C@@]4(C)CC[C@@H]1[C@]32OO4` (stereo partly drawn) [PCM-0214674] yielded an inhibition at 10 µM of -20.2%. `CCOC(=O)[C@H](CCc1ccccc1)N[C@@H](C)C(=O)N1Cc2cc(OC)c(OC)cc2C[C@H]1C(=O)O` [PCM-0095243] showed an inhibition at 10 µM of -6.2%. Compound `CCCNC(=O)Nc1ccc(Oc2ncnc3cc(OC)c(OC)cc23)cc1Cl` [PCM-0095113] has an inhibition at 10 µM of -11%. In the case of `COc1cc2nc(N3CCN(C(=O)c4ccco4)CC3)nc(N)c2cc1OC` [PCM-0065512], the inhibition at 10 µM is reported as -6%. For `CC(C)=C[C@H]1C[C@](C)(O)[C@@H]2[C@H]3CC[C@@H]4[C@@]5(C)CC[C@H](O[C@@H]6OC[C@H](O)[C@H](O[C@@H]7O[C@H](CO)[C@@H](O)[C@H](O)[C@H]7O[C@@H]7OC[C@@H](O)[C@H](O)[C@H]7O)[C@H]6O[C@@H]6O[C@@H](C)[C@H](O)[C@@H](O)[C@H]6O)C(C)(C)[C@@H]5CC[C@@]4(C)[C@@]34CO[C@@]2(C4)O1` [PCM-0216470], the inhibition at 10 µM was 10%. In the case of `O=c1cc(-c2ccc(O)c(O)c2)oc2c([C@@H]3O[C@H](CO)[C@@H](O)[C@H](O)[C@H]3O)c(O)cc(O)c12` [PCM-0216392], the inhibition at 10 µM is reported as -22.4%. For `CN[C@H]1CC[C@@H](c2ccc(Cl)c(Cl)c2)c2ccccc21` [PCM-0064965], the inhibition at 10 µM was -19.5%. In the case of `CC(NC(C)(C)C)C(=O)c1cccc(Cl)c1` (stereo not drawn) [PCM-0064429], the inhibition at 10 µM is reported as -3.9%. In the case of `C[C@@H]1O[C@@H](O[C@H]2[C@H](O[C@H]3CC[C@@]4(C)[C@@H](CC[C@]5(C)[C@@H]4CC=C4[C@@H]6CC(C)(C)CC[C@]6(C(=O)O[C@@H]6O[C@H](CO[C@@H]7O[C@H](CO)[C@@H](O[C@@H]8O[C@@H](C)[C@H](O)[C@@H](O)[C@H]8O)[C@H](O)[C@H]7O)[C@@H](O)[C@H](O)[C@H]6O)CC[C@]45C)[C@]3(C)CO)OC[C@H](O)[C@@H]2O)[C@H](O)[C@H](O)[C@H]1O` [PCM-0215008], the inhibition at 10 µM is reported as -10.1%. Work on `CCCCOCc1ccc(O)c(OC)c1` [PCM-0215915] yielded an inhibition at 10 µM of -15.6%. `CCOC(=O)c1ccc(NC(=O)O[C@H]2[C@H](OC(=O)Nc3ccc4c(c3)OCO4)[C@@H](OC(=O)Nc3ccc4c(c3)OCO4)[C@@H](OC)O[C@@H]2CO)cc1` [PCM-0215463] showed an inhibition at 10 µM of 98.1%. `COc1ccc(C(=O)CC2(O)C(=O)Nc3c(Cl)ccc(Cl)c32)cc1` (stereo not drawn) [PCM-0215405] gave an inhibition at 10 µM of 8.5%. In the case of `CCN(CC)C(=O)c1ccc(C2=CC3(CCNCC3)Oc3cccc(O)c32)cc1` [PCM-0094948], the inhibition at 10 µM is reported as -14%. With `CN(C)Cc1ccc(S(=O)(=O)n2ccc(/C=C/C(=O)NO)c2)cc1` [PCM-0214759] the inhibition at 10 µM was 9.3%. `OC[C@@H](O)C(O)[C@@H](O)CO` (stereo partly drawn) [PCM-0090917] showed an inhibition at 10 µM of 2.3%. With `CC1(C)CC[C@]2(C(=O)O)CC[C@]3(C)C(=CC[C@@H]4[C@@]5(C)CC[C@H](O)[C@@](C)(CO)[C@@H]5CC[C@]43C)[C@@H]2C1` [PCM-0215046] the inhibition at 10 µM was 15.6%. `C=C1C(=O)O[C@@H]2C[C@@]3(C)CCCC(=C)[C@@H]3C[C@H]12` [PCM-0214959] showed an inhibition at 10 µM of 15.9%. In the case of `CC(C)(C)c1nc(-c2cccc(NS(=O)(=O)c3c(F)cccc3F)c2F)c(-c2ccnc(N)n2)s1` [PCM-0095418], the inhibition at 10 µM is reported as 39.3%. Compound `c1ccc2c(CC3=NCCN3)cccc2c1` [PCM-0085846] has an inhibition at 10 µM of -13.2%. In the case of `COc1ccc(Cl)cc1C(=O)NCCc1ccc(S(=O)(=O)NC(=O)NC2CCCCC2)cc1` [PCM-0003840], the inhibition at 10 µM is reported as -65.4%. In the case of `CC(C)(C)S(=O)(=O)c1ccc2nccc(Nc3n[nH]c4ccc(F)cc34)c2c1` [PCM-0213348], the inhibition at 10 µM is reported as 26.2%. Work on `O=C1CCC(N2C(=O)c3ccccc3C2=O)C(=O)N1` (stereo not drawn) [PCM-0064817] yielded an inhibition at 10 µM of 5.5%. Work on `O=C1CCN(c2ccccc2)N1` [PCM-0216111] yielded an inhibition at 10 µM of -12.4%. `CN(C)CC/C=C1/c2ccccc2Sc2ccc(Cl)cc21` [PCM-0095101] showed an inhibition at 10 µM of 10.9%. `CCOC(=O)N1CCC(CN(Cc2ccc(Cl)cc2)Cc2ccc([N+](=O)[O-])s2)C1` (stereo not drawn) [PCM-0215989] gave an inhibition at 10 µM of 20.1%. `CC(/C=C1\SC(=S)N(CC(=O)O)C1=O)=C\c1ccccc1` [PCM-0095314] was tested, and the inhibition at 10 µM was -47.7%. `CC[C@H]1OC(=O)[C@H](C)[C@@H](O[C@H]2C[C@@](C)(OC)[C@@H](O)[C@H](C)O2)[C@H](C)[C@@H](O[C@@H]2O[C@H](C)C[C@H](N(C)C)[C@H]2O)[C@](C)(OC)C[C@@H](C)C(=O)[C@H](C)[C@@H](O)[C@]1(C)O` [PCM-0214635] was tested, and the inhibition at 10 µM was 9.3%. `O=C1CCC[C@@H]2[C@H]3CCCN4CCC[C@@H](CN12)[C@@H]34` [PCM-0094866] was tested, and the inhibition at 10 µM was 11.7%. `CC#CC(=O)Nc1ccc2ncnc(Nc3cccc(Br)c3)c2c1` [PCM-0215449] was tested, and the inhibition at 10 µM was 103%. For `COc1cc2c(=O)c(-c3ccc(O)cc3)coc2cc1O` [PCM-0216399], the inhibition at 10 µM was 6.2%. In the case of `Cc1cccc(Nc2ccncc2S(=O)(=O)NC(=O)NC(C)C)c1` [PCM-0086313], the inhibition at 10 µM is reported as -4.3%. Compound `COc1ccc(S(=O)(=O)NCc2ccc(C(=O)NCCc3ccc(Cl)cn3)cc2)cc1` [PCM-0215817] has an inhibition at 10 µM of -22.4%. For `Cc1cc(/C=C2/SC(=S)NC2=O)c(C)n1-c1cccnc1` [PCM-0215351], the inhibition at 10 µM was 10.8%. `Cc1ccc([N+](=O)[O-])cc1S(=O)(=O)N(C)/N=C/c1cnc2ccc(Br)cn12` [PCM-0094904] gave an inhibition at 10 µM of 13.6%. In the case of `O=c1[nH]cnc2c1ncn2[C@@H]1O[C@H](CO)[C@@H](O)[C@H]1O` [PCM-0094864], the inhibition at 10 µM is reported as -3.1%. `CC1(N)CCN(c2cnc(-c3cccc(Cl)c3Cl)c(N)n2)CC1` [PCM-0215991] gave an inhibition at 10 µM of 14.7%. Work on `C[C@H](CN(C)C)Oc1nc(Nc2cc3cccc(Cl)c3cn2)cnc1C#N` [PCM-0215773] yielded an inhibition at 10 µM of -3.4%. `CC(C)=CCC[C@](C)(O[C@@H]1O[C@H](CO[C@@H]2OC[C@H](O)[C@H](O)[C@H]2O)[C@@H](O)[C@H](O)[C@H]1O)[C@H]1CC[C@]2(C)[C@@H]1[C@H](O)C[C@@H]1[C@@]3(C)CC[C@H](O[C@@H]4O[C@H](CO)[C@@H](O)[C@H](O)[C@H]4O[C@@H]4O[C@H](CO)[C@@H](O)[C@H](O)[C@H]4O)C(C)(C)[C@@H]3CC[C@]12C` [PCM-0216375] gave an inhibition at 10 µM of 7.7%. With `O=c1cc(-c2ccc(O)cc2)oc2cc(O)cc(O)c12` [PCM-0064643] the inhibition at 10 µM was 63.8%. Work on `COc1ccc(S(=O)(=O)Nc2cccnc2Nc2ccc(O)cc2)cc1` [PCM-0095016] yielded an inhibition at 10 µM of -14.5%. `CNc1ccc([N+](=O)[O-])c(Nc2ccc3[nH]ncc3c2)n1` [PCM-0215769] was tested, and the inhibition at 10 µM was 32.4%. `c1ccc(NCc2ccc(CNc3ccccn3)cc2)nc1` [PCM-0095395] gave an inhibition at 10 µM of -4.8%.
